In a melting point compilation (Tetko et al.; mined from patent text by program, amines drawn as free bases though some values may be those of a salt):

melting point [°C] | SMILES
85.5 to 86.5 | CC(=O)CCCCC(=O)Nc1ccccc1
217 | CCc1c(-c2ccc3cn[nH]c3c2)cc(Nc2ccc(N3CCN(CC)CC3)cn2)c2nccn12
237 to 239 | Cc1cccc(CNC(=O)c2nc3scc(COCc4ccc(C(=O)O)cc4)c3c(=O)[nH]2)c1
133 to 135 | Cc1cc(C)c2c(n1)N(CCN1CCOCC1)c1ccccc1N(C)C2=O
240 | Cc1nc(NC(=O)c2ccccc2)n(C)c(=O)c1CCN1CCC(=C(c2ccc(F)cc2)c2ccc(F)cc2)CC1
200 to 201 | COc1nc(NCCc2ccc(F)cc2)nc(-c2ccc(OC)c(S(=O)(=O)NC3CC3)c2)n1
181 | CC(C)c1cccc(S(=O)(=O)n2c(Cc3ccc(C(=O)O)cc3)cc3cc(Cl)ccc32)c1
205 to 206 | C[C@]1(COc2ccc(N3CCN(CC=Cc4ccc(Cl)c(Cl)c4)CC3)cc2)Cn2cc([N+](=O)[O-])nc2O1
154 to 156 | Cc1nc(C)c2c(n1)N(Cc1ccc(-c3ccccc3-c3nnn[nH]3)cc1)C(=O)C(O)C2 (stereo not drawn)
190 to 193 | CC(C)(C)c1ccc(OCC(O)CN2CCC(N3CCC4(CC3)CSC3=C(O4)c4ccccc4C(=O)C3=O)CC2)cc1 (stereo not drawn)
85 to 93 | CC(C)[C@H](NC(=O)[C@@H](CSC(=O)c1ccccc1)SC(=O)c1ccccc1)C(=O)N1CCC[C@H]1C(=O)O
155 to 156 | COc1cc2ccccc2cc1NC(=O)Nc1cccc2ccccc12
108 | COc1ccc2cccc(CCNC(C)=O)c2c1
144 to 146 | CSC(=C[N+](=O)[O-])NCCCn1cc(C2=C(c3cn(C)c4ccccc34)C(=O)NC2=O)c2ccccc21
167 | O=Cc1cnc2c(OCc3ccccc3)cccn12
180 | O=C(CN1CCCCC1)Nc1ccc(-c2cc(-c3c[nH]nc3-c3ccccn3)ccn2)cc1
188 | COc1cc2c(c3c1c(=O)c1cc4ccccc4cc1n3C)C=CC(C)(C)O2
99 to 100 | CCOC(=O)c1ccc(C(=O)OCC)c2cc3ccccc3cc12

Second part, the molecule before the results:

SMILES | melting point [°C]
Cc1c(C(F)(F)F)cnn(-c2cc(OCC3CO3)c(Cl)cc2F)c1=O (stereo not drawn) | 127
COc1ccc(C(=O)N[C@H](Cc2ccc(C(F)(F)F)cc2)[C@@H](O)c2ccc(F)cc2)cc1 (racemic) | 192 to 193
CCOC(=O)c1c2n(c3cc(N4CCN(CC(C)=O)CC4)c(F)cc3c1=O)C(C)S2 (stereo not drawn) | 196 to 200
CCNC(=O)c1ccc(N2CCN(Cc3cc(C)c4c(c3)NC(=O)C(C)O4)CC2)c(Cl)c1 (stereo not drawn) | 227 to 228
ClC1=NC(Cl)(C(Cl)(Cl)C(Cl)(Cl)Cl)N=C1Cl | 74 to 75
CCOC(=O)c1cn(CCO)c2c(F)c(F)c(F)cc2c1=O | 175 to 177
CCOC(=O)c1nc2ccc(N)cc2c(O)c1C(=O)OCC | 219 to 221
FC(F)(F)c1c(CNC2Cc3ccccc3C2)ccn2c(CC3CC3)nnc12 | > 300
CCCCCCCCCCCCCCOc1cccc(CC(=O)Nc2cccc(CO)c2)c1 | 86 to 90
Cc1ccccc1COCCCC(=O)O | 79 to 80
O=C(NCc1ccc(Cl)cc1)c1cnc2sc(CO)cc2c1O | 205 to 210
Cc1c(-c2ccc(Cl)cc2F)sc2nc(N)[nH]c(=O)c12 | 320 to 340
O=C1NCC(=O)c2[nH]cnc2N1 | > 300
CCCCCCCCCCCCCCC/C=C/C=O | 35
CC(C)C(=O)N1C2=NCCN2C(=O)c2nc(C(C)C)[nH]c21 | 271 to 273
C#CCCOc1ccc(C=O)cc1OC | 101 to 102
Cc1cc(Cl)cc(CO)c1 | 32 to 34.5
COC(=O)[C@@H]1C[C@H](C(=O)O)Nc2cc(Cl)ccc21 (relative stereo) | 122 to 124
CC(=O)C1C(C(=O)c2ccc(Cl)cc2)CC2C3CCC4=CC(=O)CCC4(C)C3(F)C(O)CC21C (stereo not drawn) | 280 to 281
COc1ccc([N+](=O)[O-])c(F)c1 | 47 to 49
